Results as given in US7214396B2, “Confectionery product containing functional ingredients and method of making and using” (Nestec S.A., priority 2000, dated 2007).

Legend:
[1] = cited from earlier work; for solubility: water at 37° C.
[2] = cooling effect: instant fall of temperature when powder is added to water; format: physicochemical; conditions: 150 g of powder added to 50 ml of water at 37° C.
Protocol: A suitable monosaccharide polyol is preferably selected from the group consisting of xylitol, erythritol, sorbitol or a combination thereof. […] (Instant fall of temperature when 150 g of powder are added to 50 ml of water at 37° C.).

SMILES | solubility [1] | water solubility compared with other polyols ([1]; anhydride crystals) | measured cooling effect (instant fall of temperature) [2]
OC[C@@H](O)[C@@H](O[C@H]1O[C@H](CO)[C@@H](O)[C@H](O)[C@H]1O)[C@H](O)[C@@H](O)CO [maltitol, reference compound] | less than 205 g/100 g | – | –
OC[C@@H](O)[C@@H](O)CO [Erythritol] | – | less water soluble | –
OC[C@@H](O)[C@H](O)[C@@H](O)CO [xylitol] | 250–260 g/100 g | – | about −20 °C
OC[C@@H](O)[C@@H](O)[C@H](O)[C@@H](O)CO [sorbitol] | 330–340 g/100 g | – | about −22 °C
OC[C@H]1O[C@@](CO)(O[C@H]2O[C@H](CO)[C@@H](O)[C@H](O)[C@H]2O)[C@@H](O)[C@@H]1O [sucrose, reference compound] | under 230 g/100 g | – | –
